Data taken from PubChem BioAssay (NCI).
Several values for one entry are separate records, joined by “and”; a condition that tells them apart may be missing. Equal entries are not always repeated.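 Following 48 hours of exposure in 96-well plates, responses at five concentrations were used to interpolate endpoints linearly. GI50 marks 50% less growth. The concentration for full growth arrest is given as TGI.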

Assays:
Assay in all cases: NCI-60 cell line screen, 48 h
A549 NSCLC = tested on: A549 NSCLC
ACHN renal = tested on: ACHN renal
DU-145 prostate = tested on: DU-145 prostate
HOP-62 NSCLC = tested on: HOP-62 NSCLC
HT29 colon = tested on: HT29 colon
LOX IMVI melanoma = tested on: LOX IMVI melanoma
OVCAR-3 ovarian = tested on: OVCAR-3 ovarian
OVCAR-5 ovarian = tested on: OVCAR-5 ovarian
SK-MEL-5 melanoma = tested on: SK-MEL-5 melanoma
U251 CNS = tested on: U251 CNS

SMILES | GI50 (A549 NSCLC) | TGI (A549 NSCLC) | GI50 (ACHN renal) | TGI (ACHN renal) | GI50 (DU-145 prostate) | TGI (DU-145 prostate) | GI50 (HOP-62 NSCLC) | TGI (HOP-62 NSCLC) | GI50 (HT29 colon) | TGI (HT29 colon) | GI50 (LOX IMVI melanoma) | TGI (LOX IMVI melanoma) | GI50 (OVCAR-3 ovarian) | TGI (OVCAR-3 ovarian) | GI50 (OVCAR-5 ovarian) | TGI (OVCAR-5 ovarian) | GI50 (SK-MEL-5 melanoma) | TGI (SK-MEL-5 melanoma) | GI50 (U251 CNS) | TGI (U251 CNS)
C[N+](C)(CCCCCC[N+](C)(C)CCCN1C(=O)c2cc3ccccc3cc2C1=O)CCCN1C(=O)c2cc3ccccc3cc2C1=O | > 37.5 µM | > 37.5 µM | > 37.5 µM | > 37.5 µM | > 37.5 µM | > 37.5 µM | > 37.5 µM | > 37.5 µM | > 37.5 µM | > 37.5 µM | > 37.5 µM | > 37.5 µM | > 37.5 µM | > 37.5 µM | > 37.5 µM | > 37.5 µM | > 37.5 µM | > 37.5 µM | > 37.5 µM | > 37.5 µM
O=S1(=O)NC2CCC3NS(=O)(=O)NC4CCC(N1)N4S(=O)(=O)N23 (centres undefined) |  | > 100 µM |  | > 100 µM |  | > 100 µM |  | > 100 µM |  | > 100 µM |  | > 100 µM |  | > 100 µM |  | > 100 µM |  | > 100 µM |  | > 100 µM
NCCCn1c2c(c3ccc([N+](=O)[O-])cc3c1=O)C(=O)c1cc(-c3ccccc3)ccc1-2 | 0.237 µM | 0.552 µM | 1.56 µM | 3.08 µM | 0.491 µM | 1.02 µM | 0.406 µM | 1.46 µM | 0.19 µM | 0.368 µM | 0.916 µM | 2.59 µM | 1.65 µM | 3.1 µM | 1.48 µM | 2.95 µM | 1.31 µM | 2.62 µM | 0.172 µM | 0.313 µM
O=C(N=Nc1c(O)[nH]c2ccccc12)c1oc2ccccc2c1CN1CCN(c2ccccc2)CC1 | 1.54 µM | 8.21 µM | 1.02 µM | 2.53 µM | 1.22 µM | 3.27 µM | 2.7 µM | 10.9 µM | 4.06 µM | > 50 µM | 2.04 µM | 7.84 µM | 1.02 µM | 1.94 µM | 2.54 µM | 11.6 µM | 1.49 µM | 5.19 µM | 1.97 µM | 8.67 µM
COc1cc2oc(-c3ccc(O)cc3O)c(CC=C(C)C)c(=O)c2c(O)c1/C=C/C(C)C |  | 7.75 µM |  | 8.12 µM |  | 11 µM |  | 5.93 µM |  | 5.74 µM |  | 3.32 µM |  | 4.94 µM |  | 18.7 µM |  | 3.06 µM |  | 6.12 µM
CCC(CCC(C)C1CCC2C3CC=C4CC(OC5OC(CO)C(O)C(O)C5O)CCC4(C)C3CCC12C)C(C)C (centres undefined) |  | > 100 µM |  | > 100 µM |  | > 100 µM |  | > 100 µM |  | > 100 µM |  | > 100 µM |  | > 100 µM |  | > 100 µM |  | > 100 µM |  | > 100 µM
C=C1CCC2C3(C)COC(c4c(OC)cccc4OC)OC3CCC2(C)C1C/C=C1/C(=O)OCC1O (centres undefined) | 3.14 µM | 11.6 µM | 2.38 µM | 5.85 µM | 2.96 µM | 7.87 µM | 14.8 µM | 28.7 µM | 2.51 µM | 6.62 µM | 1.63 µM | 3.25 µM | 1.94 µM | 3.95 µM | 3.39 µM | 8.63 µM | 2.83 µM | 8.57 µM | 1.91 µM | 4.36 µM
Cc1ccc(/C=C/C(=N/N=C(N)N)c2ccccc2)cc1 | 3.46 µM | 12.5 µM | 4.17 µM | 17.4 µM | 3.33 µM | 10.8 µM | 3.57 µM | 16 µM | 2.53 µM | 7.59 µM | 3.28 µM | 15.5 µM | 2.28 µM | 6.03 µM | 2.97 µM | 12.4 µM | 1.69 µM | 3.86 µM | 3.1 µM | 12.5 µM
c1ccc(CN2CCC3(CC2)SSC2(CCN(Cc4ccccc4)CC2)SS3)cc1 |  | > 100 µM |  | > 100 µM |  | > 100 µM |  | > 100 µM |  | > 100 µM |  | > 100 µM |  | > 100 µM |  | > 100 µM |  | > 100 µM |  | > 100 µM
Clc1cc2c(nn1)Nc1ccccc1S2 | > 100 µM | > 100 µM | > 100 µM | > 100 µM | > 100 µM | > 100 µM | > 100 µM | > 100 µM | > 100 µM | > 100 µM | > 100 µM | > 100 µM | > 100 µM | > 100 µM | > 100 µM | > 100 µM | > 100 µM | > 100 µM | > 100 µM | > 100 µM
COC1=C(Br)C(O)C2(C=C1Br)CC(C(=O)NCCCCNC(=O)C1=NOC3(C=C(Br)C(OC)=C(Br)C3O)C1)=NO2 (centres undefined) |  | > 100 µM |  | 75.1 µM |  | > 100 µM |  | 79 µM |  | 38.8 µM |  | 35.1 µM |  | 39.4 µM |  | > 100 µM |  | 36.6 µM |  | > 100 µM
COC(=O)c1ccc2c(c1)C(=O)c1c-2n(C)c(=O)c2cc(OC)c(OC)cc12 | > 50 µM | > 50 µM | > 50 µM | > 50 µM | > 50 µM | > 50 µM | 17.7 µM | > 50 µM | > 50 µM | > 50 µM | > 50 µM | > 50 µM | 44.6 µM | > 50 µM | > 50 µM | > 50 µM | > 50 µM | > 50 µM | 19.8 µM | > 50 µM
CCCCCCCCCCCCCCCC(=O)N[C@H](/C=C/[C@H](O)CCCCCCCCCCCCC)CO | > 100 µM | > 100 µM | > 100 µM | > 100 µM | > 100 µM | > 100 µM | > 100 µM | > 100 µM | > 100 µM | > 100 µM | > 100 µM | > 100 µM | > 100 µM | > 100 µM | > 100 µM | > 100 µM | > 100 µM | > 100 µM | > 100 µM | > 100 µM
O=c1c2c(c3ccccc3n1-c1ccccc1)NC(=S)NC2c1ccc(Cl)cc1 (centres undefined) | 4.25 µM | > 100 µM | 3.92 µM | > 100 µM | 3 µM | 28.5 µM | 4.83 µM | 56.3 µM | 4.69 µM | > 100 µM | 2.59 µM | 33.4 µM | 2.86 µM | 15.6 µM | 8.8 µM | 86.4 µM | 2.42 µM | 10.5 µM | 2.04 µM | 24.8 µM
NC1CCC(Nc2nc(NCc3cc(Cl)ccc3O)c3ncn(C4CCCC4)c3n2)CC1 (centres undefined) | 0.193 µM | 0.713 µM | 0.183 µM | 0.527 µM | 0.207 µM | 1.02 µM | 0.245 µM | 0.813 µM | 0.22 µM | 0.755 µM | 0.537 µM | 5 µM | 0.133 µM | 0.64 µM | 0.242 µM | 1.16 µM | 0.175 µM | 0.325 µM | 0.14 µM | 0.444 µM
CC1=C(C(=O)Nc2ccc3[nH]ncc3c2)C(c2ccc(Cl)c(Cl)c2)CC(=O)N1 (centres undefined) | > 25 µM | > 25 µM | > 25 µM | > 25 µM | > 25 µM | > 25 µM | 17 µM | > 25 µM | 24.6 µM | > 25 µM | > 22.3 µM | > 25 µM | > 25 µM | > 25 µM | > 25 µM | > 25 µM | > 25 µM | > 25 µM | > 25 µM | > 25 µM
Nc1nc2c(nnn2C2OC(CO)C(O)C2O)c(=O)[nH]1 (centres undefined) | 3.01 µM | > 100 µM | 0.298 µM | > 100 µM | 0.371 µM | > 78.8 µM | 3.2 µM | > 100 µM | 1.66 µM | 42.6 µM | 0.475 µM | > 100 µM | 1.17 µM | 10.7 µM | 13.3 µM | > 100 µM | 2.44 µM | 9.24 µM | 2.96 µM | > 100 µM
CCN(CC)CCOc1ccc(/C=C2\C[C@H]3[C@H]4CC=C5C[C@@H](O)CC[C@]5(C)[C@H]4CC[C@]3(C)[C@H]2O)cc1OC | 10.7 µM | 25 µM | 9.23 µM | 17.4 µM | 3.86 µM | 10.2 µM | 8.89 µM | 22.8 µM | 10.9 µM | > 50 µM | 7.7 µM | 15.3 µM | 7.96 µM | 17.8 µM | 9.44 µM | 18.6 µM | 0.625 µM | 11.1 µM | 9.53 µM | 17.3 µM
Cc1[nH]c(C(=O)Nc2ccccc2OC2CCNCC2)c(Cl)c1Cl | 1.22 µM | 3.35 µM | 0.995 µM | 2.05 µM | 1.05 µM | 2.04 µM | 0.812 µM | 1.63 µM | 0.875 µM | 1.71 µM | 0.882 µM | 1.61 µM | 0.931 µM | 1.68 µM | 1.28 µM | 4.32 µM | 0.88 µM | 1.59 µM | 0.849 µM | 1.61 µM
COC(C(=O)C(O)C(C)O)C1Cc2cc3cc(OC4CC(OC5CC(O)C(O)C(C)O5)C(O)C(C)O4)c(C)c(O)c3c(O)c2C(=O)C1OC1CC(OC2CC(O)C(OC3CC(C)(O)C(O)C(C)O3)C(C)O2)C(O)C(C)O1 (centres undefined) | 12.6 ng/mL and 1.27 ng/mL |  | 16.2 ng/mL and 32.6 ng/mL | 112000 ng/mL and > 150000 ng/mL | 27.4 ng/mL and 43.5 ng/mL | 112000 ng/mL and 127000 ng/mL | 11.2 ng/mL and 0.0327 ng/mL |  | 2.84 ng/mL | 2030 ng/mL | 2.17 ng/mL | 15000 ng/mL | 11.2 ng/mL and 4.13 ng/mL |  | 13 ng/mL and 3.6 ng/mL |  | 11.2 ng/mL and 1.86 ng/mL |  | 11.2 ng/mL and 0.643 ng/mL | 
